The values that follow come from ChEMBL document CHEMBL5584354, “Impact of Conjugation of the Reactive Oxygen Species (ROS)-Generating Catalytic Moiety with Membrane-Active Antimicrobial Peptoids: Promoting Multitarget Mechanism and Enhancing Selectivity” (J Med Chem, 2024).

Broadly, the MIC is the lowest concentration found to suppress growth. The term HC50 denotes the concentration that lyses half of the red blood cells.

Data set [1] deals with Escherichia coli. Description: Antibacterial activity against Escherichia coli ATCC 25922 assessed as inhibition of bacterial growth incubated for 24 hrs by broth dilution method. It is filed as functional.
In data set [2] the test system is Erythrocyte. Description: Hemolytic activity in male Sprague-Dawley rat erythrocytes assessed as concentration required for 10% hemolysis incubated for 1 hr by absorbance based method. It is filed as toxicity, cell-based.
A short description of data set [3]: Hemolytic activity in male Sprague-Dawley rat erythrocytes at 100 uM incubated for 1 hr by absorbance based method relative to control. The class given is toxicity, cell-based, Erythrocyte. As to conditions: read-out: Activity.
Data set [4] can be described thus: Hemolytic activity in male Sprague-Dawley rat erythrocytes at 50 uM incubated for 1 hr by absorbance based method relative to control. It is filed as toxicity, cell-based, Erythrocyte. As to conditions: read-out: Activity.
Data set [5] can be described thus: Hemolytic activity in male Sprague-Dawley rat erythrocytes assessed as concentration required for 50% hemolysis incubated for 1 hr by absorbance based method. The class given is toxicity, cell-based, Erythrocyte.
Data set [6] can be described thus: Hemolytic activity in male Sprague-Dawley rat erythrocytes at 25 uM incubated for 1 hr by absorbance based method relative to control. As to conditions: read-out: Activity. It is filed as toxicity, cell-based, Erythrocyte.
Data set [7] deals with Staphylococcus aureus. Nature of the data set: Antibacterial activity against Staphylococcus aureus ATCC 25923 assessed as inhibition of bacterial growth incubated for 24 hrs by broth dilution method. The class given is functional. On the technique in general: In broth dilution the organism is exposed to a series of concentrations in liquid medium.

Values after ≈ are worked out from the molar mass of the structure shown. Non-standard residues stand in square brackets, D forms with d. Residues, ends and D or L forms follow the SMILES beside them. *: point of attachment. X1 = NC(=O)[C@H](Cc1c[nH]cn1)NC(=O)CNC(=O)[C@@H](N)CN*; Gly(N(CH2)2(3-indolyl)) = O=C(O)CNCCc1c[nH]c2ccccc12; Nspe = C[C@H](NCC(=O)O)c1ccccc1; Nphe = O=C(O)CNCc1ccccc1; Nlys = NCCCCNCC(=O)O Some results are limits rather than exact numbers.

For the molecule `C[C@@H](c1ccccc1)N(CC(=O)NC[C@H](N)C(=O)NCC(=O)N[C@@H](Cc1c[nH]cn1)C(N)=O)C(=O)CN(CCCCN)C(=O)CN(CCCCN)C(=O)CN(C(=O)CN(C(=O)CN(CCCCN)C(=O)CN(C(=O)CN(C(=O)CN(CCCCN)C(=O)CN(CCc1c[nH]c2ccccc12)C(=O)CN(CCc1c[nH]c2ccccc12)C(=O)CNCCCCN)[C@@H](C)c1ccccc1)[C@@H](C)c1ccccc1)[C@@H](C)c1ccccc1)[C@@H](C)c1ccccc1` (H-[Nlys][Gly(N(CH2)2(3-indolyl))][Gly(N(CH2)2(3-indolyl))][Nlys][Nspe][Nspe][Nlys][Nspe][Nspe][Nlys][Nlys][Nspe]-X1), the minimum inhibitory concentration (MIC) was more than 25 µM in data set [1] and 6.3 µM (≈ 13.5 µg/mL) in data set [7]. The HC10 in data set [2] was more than 100 µM. In addition, in data set [3], the hemolysis at 1 h, 100 µM worked out at 5.26%. For the same molecule, the hemolysis at 1 h, 50 µM in data set [4] worked out at 6.1%. Besides, the HC50 at 1 h in data set [5] is more than 100 µM. Moreover, the hemolysis at 1 h, 25 µM in data set [6] stood at 4.93%.

With `C[C@@H](c1ccccc1)N(CC(=O)N(CCCCN)CC(=O)N(CC(=O)N(CC(=O)N(CCCCN)CC(=O)N(CC(=O)N(CC(=O)N(CCCCN)CC(=O)N(CC(=O)N(CC(N)=O)Cc1ccccc1)Cc1ccccc1)Cc1ccccc1)Cc1ccccc1)Cc1ccccc1)Cc1ccccc1)C(=O)CN(Cc1ccccc1)C(=O)CN(CCCCN)C(=O)[C@H](Cc1c[nH]cn1)NC(=O)CNC(=O)CN` (H-GGH[Nlys][Nphe][Nspe][Nlys][Nphe][Nphe][Nlys][Nphe][Nphe][Nlys][Nphe][Nphe]-NH2), the figures for the MIC in data set [1] and in data set [7] were 25 µM (≈ 49.3 µg/mL) and more than 25 µM, respectively. Moreover, the HC10 in data set [2] is more than 100 µM. In addition, the hemolysis at 1 h, 100 µM in data set [3] is 0.92%. For the same molecule, the hemolysis at 1 h, 50 µM in data set [4] is -0.22%. Also, the HC50 at 1 h in data set [5] was more than 100 µM. Moreover, the hemolysis at 1 h, 25 µM in data set [6] was -0.71%.

Take `C[C@@H](c1ccccc1)N(CC(=O)N(CCCCN)CC(=O)N(CCc1c[nH]c2ccccc12)CC(=O)N(CCc1c[nH]c2ccccc12)CC(=O)NC[C@H](N)C(=O)NCC(=O)N[C@@H](Cc1c[nH]cn1)C(N)=O)C(=O)CN(CCCCN)C(=O)CN(CCCCN)C(=O)CN(C(=O)CN(C(=O)CN(CCCCN)C(=O)CN(C(=O)CN(C(=O)CNCCCCN)[C@@H](C)c1ccccc1)[C@@H](C)c1ccccc1)[C@@H](C)c1ccccc1)[C@@H](C)c1ccccc1` (H-[Nlys][Nspe][Nspe][Nlys][Nspe][Nspe][Nlys][Nlys][Nspe][Nlys][Gly(N(CH2)2(3-indolyl))][Gly(N(CH2)2(3-indolyl))]-X1): the MIC is more than 25 µM in data set [1] and 6.3 µM (≈ 13.5 µg/mL) in data set [7]. Further, the HC10 in data set [2] is more than 100 µM. Besides, the hemolysis at 1 h, 100 µM in data set [3] worked out at 3.38%. Besides, the hemolysis at 1 h, 50 µM in data set [4] came to 4.23%. Further, the HC50 at 1 h in data set [5] was more than 100 µM. The hemolysis at 1 h, 25 µM in data set [6] was determined as 3.83%.

Regarding `C[C@@H](c1ccccc1)N(CC(=O)N(CCCCN)CC(=O)N(CC(=O)N(CC(=O)N(CCCCN)CC(=O)N(CC(=O)N(CC(=O)NC[C@H](N)C(=O)NCC(=O)N[C@@H](Cc1c[nH]cn1)C(N)=O)Cc1ccccc1)Cc1ccccc1)[C@@H](C)c1ccccc1)[C@@H](C)c1ccccc1)C(=O)CN(C(=O)CN(CCCCN)C(=O)CN(Cc1ccccc1)C(=O)CN(Cc1ccccc1)C(=O)CNCCCCN)[C@@H](C)c1ccccc1` (H-[Nlys][Nphe][Nphe][Nlys][Nspe][Nspe][Nlys][Nspe][Nspe][Nlys][Nphe][Nphe]-X1), the minimal inhibitory concentration (MIC) is more than 25 µM in data set [1] and 25 µM (≈ 51.1 µg/mL) in data set [7]. Besides, the HC10 in data set [2] was more than 100 µM. For the same molecule, the hemolysis at 1 h, 100 µM in data set [3] stood at 7.73%. Further, in data set [4], the hemolysis at 1 h, 50 µM was found to be 2.32%. The HC50 at 1 h in data set [5] was more than 100 µM. Besides, the hemolysis at 1 h, 25 µM in data set [6] came to 0.66%.
